Source: patent US12545639B2, “3-substituted phenylamidine compounds, preparation and use thereof” (PI INDUSTRIES LTD., priority 2019, dated 2026)

Columns and labels:
[1] = tested on: Septoria lycopersici/Corynespora cassicola (CORYCA); test: Septoria lycopersici/Corynespora cassicola (CORYCA) (leaf spot of tomato) in vitro test, radial growth on potato dextrose agar; type: cell-based; conditions: 168 h, 300 ppm in potato dextrose agar, 25° C., 70% relative humidity, seven days, read-out: control compared to the untreated check (radial growth)
[2] = tested on: Rhizoctonia solani; test: Rhizoctonia solani (rice sheath blight/potato black scurf) in vitro test, radial growth on potato dextrose agar; type: cell-based; conditions: 168 h, 300 ppm in potato dextrose agar, 25° C., 60% relative humidity, seven days, read-out: control compared to the untreated check (radial growth)
[3] = tested on: Colletotrichum capsici; test: Colletotrichum capsici (anthracnose) in vitro test, radial growth on potato dextrose agar; type: cell-based; conditions: Colletotrichum truncatum, 168 h; 300 ppm in potato dextrose agar; 25° C., 60% relative humidity, seven days; read-out: control compared to the untreated check (radial growth)
[4] = tested on: Fusarium culmorum; test: Fusarium culmorum (foot rot of cereals) in vitro test, radial growth on potato dextrose agar; type: cell-based; conditions: 168 h, 300 ppm in potato dextrose agar, 25° C., 60% relative humidity, seven days, read-out: control compared to the untreated check (radial growth)
Summary of the method: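 Compound in 0.3% DMSO mixed into potato dextrose agar, plates seeded with a 5 mm mycelial disc from an actively growing virulent culture. After seven days at 25° C and 60% relative humidity, radial growth was measured against untreated control.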

[5] = tested on: Pyricularia oryzae; test: microbe, parasite or virus in culture; type: cell-based; conditions: 168 h, read-out: control compared to the untreated check (radial growth)
[6] = tested on: Alternaria solani; test: Alternaria solani (early blight of tomato/potato) in vitro test, radial growth on potato dextrose agar; type: cell-based; conditions: 168 h, 300 ppm in potato dextrose agar, 25° C., 60% relative humidity, seven days, read-out: control compared to the untreated check (radial growth)
[7] = tested on: Botrytis cinerea; test: Botrytis cinerea (gray mold) in vitro test, radial growth on potato dextrose agar; type: cell-based; conditions: 168 h, 300 ppm in potato dextrose agar, 22° C., 90% relative humidity, seven days, read-out: control compared to the untreated check (radial growth)
[8] = tested on: Phakopsora pachyrhizi; test: Phakopsora pachyrhizi test in soybean, preventive, in vivo on plants; conditions: in Glycine max, read-out: Efficacy (% control), disease severity compared to the untreated check

CCN(C)C=Nc1cc(C)cc(Cc2ccc(Br)cc2)c1C [Compound 223, N′-(3-(4-bromobenzyl)-2,5-dimethylphenyl)-N-ethyl-N-methylformimidamide]
≥ 70%: inhibition of growth at 300 ppm [1] | inhibition of growth at 300 ppm [2] | inhibition of growth at 300 ppm [3] | inhibition of growth at 300 ppm [4] | inhibition of growth at 300 ppm [5] | inhibition of growth at 300 ppm [6] | inhibition of growth at 300 ppm [7] | pest or weed control at 500 ppm [8]

CCN(C)C=Nc1cc(Cl)cc(Cc2ccc(F)cc2)c1C [Compound 124, N′-(5-chloro-3-(4-fluorobenzyl)-2-methylphenyl)-N-ethyl-N-methylformimidamide]
≥ 70%: inhibition of growth at 300 ppm [1] | inhibition of growth at 300 ppm [2] | inhibition of growth at 300 ppm [3] | inhibition of growth at 300 ppm [4] | inhibition of growth at 300 ppm [5] | inhibition of growth at 300 ppm [6] | inhibition of growth at 300 ppm [7] | pest or weed control at 500 ppm [8]

CCN(C)C=Nc1cc(C)cc(Cc2ccc(C)cc2)c1Cl [Compound 18, N′-(2-chloro-5-methyl-3-(4-methylbenzyl)phenyl)-N-ethyl-N-methylformimidamide]
≥ 70%: inhibition of growth at 300 ppm [1] | inhibition of growth at 300 ppm [2] | inhibition of growth at 300 ppm [3] | inhibition of growth at 300 ppm [4] | inhibition of growth at 300 ppm [5] | inhibition of growth at 300 ppm [6] | inhibition of growth at 300 ppm [7] | pest or weed control at 500 ppm [8]

CCN(C)C=Nc1cc(OC)cc(Cc2ccc(C)cc2)c1C [Compound 263, N-ethyl-N′-(5-methoxy-2-methyl-3-(4-methylbenzyl)phenyl)-N-methylformimidamide]
≥ 70%: inhibition of growth at 300 ppm [1] | inhibition of growth at 300 ppm [2] | inhibition of growth at 300 ppm [3] | inhibition of growth at 300 ppm [4] | inhibition of growth at 300 ppm [5] | inhibition of growth at 300 ppm [6] | inhibition of growth at 300 ppm [7] | pest or weed control at 500 ppm [8]

CCN(C)C=Nc1cc(F)cc(Cc2ccc(F)cc2)c1C [Compound 204, N-ethyl-N′-(5-fluoro-3-(4-fluorobenzyl)-2-methylphenyl)-N-methylformimidamide]
≥ 70%: inhibition of growth at 300 ppm [1] | inhibition of growth at 300 ppm [2] | inhibition of growth at 300 ppm [3] | inhibition of growth at 300 ppm [4] | inhibition of growth at 300 ppm [5] | inhibition of growth at 300 ppm [6] | inhibition of growth at 300 ppm [7] | pest or weed control at 500 ppm [8]

CCN(C)C=Nc1cc(F)cc(Cc2ccc(Br)cc2F)c1C [Compound 236, N′-(3-(4-bromo-2-fluorobenzyl)-5-fluoro-2-methylphenyl)-N-ethyl-N-methylformimidamide]
≥ 70%: inhibition of growth at 300 ppm [1] | inhibition of growth at 300 ppm [2] | inhibition of growth at 300 ppm [3] | inhibition of growth at 300 ppm [4] | inhibition of growth at 300 ppm [5] | inhibition of growth at 300 ppm [6] | inhibition of growth at 300 ppm [7] | pest or weed control at 500 ppm [8]

CCN(C)C=Nc1cc(C)cc(Cc2ccc(F)cc2)c1C [Compound 222, N-ethyl-N′-(3-(4-fluorobenzyl)-2,5-dimethylphenyl)-N-methylformimidamide]
≥ 70%: inhibition of growth at 300 ppm [1] | inhibition of growth at 300 ppm [2] | inhibition of growth at 300 ppm [3] | inhibition of growth at 300 ppm [4] | inhibition of growth at 300 ppm [5] | inhibition of growth at 300 ppm [6] | inhibition of growth at 300 ppm [7] | pest or weed control at 500 ppm [8]

CCN(C)C=Nc1cc(Cl)cc(Cc2ccc(Cl)cc2)c1C [Compound 126, N′-(5-chloro-3-(4-chlorobenzyl)-2-methylphenyl)-N-ethyl-N-methylformimidamide]
≥ 70%: inhibition of growth at 300 ppm [1] | inhibition of growth at 300 ppm [2] | inhibition of growth at 300 ppm [3] | inhibition of growth at 300 ppm [4] | inhibition of growth at 300 ppm [5] | inhibition of growth at 300 ppm [6] | inhibition of growth at 300 ppm [7] | pest or weed control at 500 ppm [8]

CCN(C)C=Nc1cc(C)cc(Cc2cccc(C)c2)c1C [Compound 208, N′-(2,5-dimethyl-3-(3-methylbenzyl)phenyl)-N-ethyl-N-methylformimidamide]
≥ 70%: inhibition of growth at 300 ppm [1] | inhibition of growth at 300 ppm [2] | inhibition of growth at 300 ppm [3] | inhibition of growth at 300 ppm [4] | inhibition of growth at 300 ppm [5] | inhibition of growth at 300 ppm [6] | inhibition of growth at 300 ppm [7] | pest or weed control at 500 ppm [8]

CCN(C)C=Nc1cc(C)cc(Cc2ccc(F)cc2)c1Cl [Compound 44, N′-(2-chloro-3-(4-fluorobenzyl)-5-methylphenyl)-N-ethyl-N-methylformimidamide]
≥ 70%: inhibition of growth at 300 ppm [1] | inhibition of growth at 300 ppm [2] | inhibition of growth at 300 ppm [3] | inhibition of growth at 300 ppm [4] | inhibition of growth at 300 ppm [5] | inhibition of growth at 300 ppm [6] | inhibition of growth at 300 ppm [7] | pest or weed control at 500 ppm [8]

CCN(C)C=Nc1cc(F)cc(Nc2ccc(C(C)(C)C)cc2)c1C [Compound 20, N′-(3-((4-(tert-butyl)phenyl)amino)-5-fluoro-2-methylphenyl)-N-ethyl-N-methylformimidamide]
≥ 70%: inhibition of growth at 300 ppm [1] | inhibition of growth at 300 ppm [2] | inhibition of growth at 300 ppm [3] | inhibition of growth at 300 ppm [4] | inhibition of growth at 300 ppm [5] | inhibition of growth at 300 ppm [6] | inhibition of growth at 300 ppm [7] | pest or weed control at 500 ppm [8]

CCN(C)C=Nc1cc(C)cc(Cc2ccccc2)c1C [Compound 207, N′-(3-benzyl-2,5-dimethylphenyl)-N-ethyl-N-methylformimidamide]
≥ 70%: inhibition of growth at 300 ppm [1] | inhibition of growth at 300 ppm [2] | inhibition of growth at 300 ppm [3] | inhibition of growth at 300 ppm [4] | inhibition of growth at 300 ppm [5] | inhibition of growth at 300 ppm [6] | inhibition of growth at 300 ppm [7] | pest or weed control at 500 ppm [8]

CCN(C)C=Nc1cc(OC)cc(Cc2ccc(Br)cc2)c1C [Compound 287, N′-(3-(4-bromobenzyl)-5-methoxy-2-methylphenyl)-N-ethyl-N-methylformimidamide]
≥ 70%: inhibition of growth at 300 ppm [1] | inhibition of growth at 300 ppm [2] | inhibition of growth at 300 ppm [3] | inhibition of growth at 300 ppm [4] | inhibition of growth at 300 ppm [5] | inhibition of growth at 300 ppm [6] | inhibition of growth at 300 ppm [7] | pest or weed control at 500 ppm [8]

CCN(C)C=Nc1cc(C)cc(Cc2ccccc2Br)c1C [Compound 221, N′-(3-(2-bromobenzyl)-2,5-dimethylphenyl)-N-ethyl-N-methylformimidamide]
≥ 70%: inhibition of growth at 300 ppm [1] | inhibition of growth at 300 ppm [2] | inhibition of growth at 300 ppm [3] | inhibition of growth at 300 ppm [4] | inhibition of growth at 300 ppm [5] | inhibition of growth at 300 ppm [6] | inhibition of growth at 300 ppm [7] | pest or weed control at 500 ppm [8]

CCN(C)C=Nc1cc(C)cc(Cc2ccccc2Cl)c1C [Compound 220, N′-(3-(2-chlorobenzyl)-2,5-dimethylphenyl)-N-ethyl-N-methylformimidamide]
≥ 70%: inhibition of growth at 300 ppm [1] | inhibition of growth at 300 ppm [2] | inhibition of growth at 300 ppm [3] | inhibition of growth at 300 ppm [4] | inhibition of growth at 300 ppm [5] | inhibition of growth at 300 ppm [6] | inhibition of growth at 300 ppm [7] | pest or weed control at 500 ppm [8]
